Assay results as given in ChEMBL document CHEMBL1140360, “Synthesis and biological activity of 3,4-dihydroquinazolines for selective T-type Ca2+ channel blockers” (Bioorg Med Chem Lett, 2005).

Experiments:
Assay type in all cases: cell-based
[1] = target: T1, Voltage-dependent T-type calcium channel subunit alpha-1G (Homo sapiens, UniProt O43497); experiment: Percent inhibition of T-type [Ca2+] channel (alpha1G) expressed in HEK293 cells at 10 uM
[2] = target: Voltage-dependent N-type calcium channel subunit alpha-1B (Homo sapiens) (UniProt Q00975); experiment: Percent inhibition of N-type [Ca2+] channel (Alpha-1B) expressed in HEK293 cells at 10 uM
Voltage-dependent N-type calcium channel subunit alpha-1B (Homo sapiens), sequence (Q00975 whole entry, looked up): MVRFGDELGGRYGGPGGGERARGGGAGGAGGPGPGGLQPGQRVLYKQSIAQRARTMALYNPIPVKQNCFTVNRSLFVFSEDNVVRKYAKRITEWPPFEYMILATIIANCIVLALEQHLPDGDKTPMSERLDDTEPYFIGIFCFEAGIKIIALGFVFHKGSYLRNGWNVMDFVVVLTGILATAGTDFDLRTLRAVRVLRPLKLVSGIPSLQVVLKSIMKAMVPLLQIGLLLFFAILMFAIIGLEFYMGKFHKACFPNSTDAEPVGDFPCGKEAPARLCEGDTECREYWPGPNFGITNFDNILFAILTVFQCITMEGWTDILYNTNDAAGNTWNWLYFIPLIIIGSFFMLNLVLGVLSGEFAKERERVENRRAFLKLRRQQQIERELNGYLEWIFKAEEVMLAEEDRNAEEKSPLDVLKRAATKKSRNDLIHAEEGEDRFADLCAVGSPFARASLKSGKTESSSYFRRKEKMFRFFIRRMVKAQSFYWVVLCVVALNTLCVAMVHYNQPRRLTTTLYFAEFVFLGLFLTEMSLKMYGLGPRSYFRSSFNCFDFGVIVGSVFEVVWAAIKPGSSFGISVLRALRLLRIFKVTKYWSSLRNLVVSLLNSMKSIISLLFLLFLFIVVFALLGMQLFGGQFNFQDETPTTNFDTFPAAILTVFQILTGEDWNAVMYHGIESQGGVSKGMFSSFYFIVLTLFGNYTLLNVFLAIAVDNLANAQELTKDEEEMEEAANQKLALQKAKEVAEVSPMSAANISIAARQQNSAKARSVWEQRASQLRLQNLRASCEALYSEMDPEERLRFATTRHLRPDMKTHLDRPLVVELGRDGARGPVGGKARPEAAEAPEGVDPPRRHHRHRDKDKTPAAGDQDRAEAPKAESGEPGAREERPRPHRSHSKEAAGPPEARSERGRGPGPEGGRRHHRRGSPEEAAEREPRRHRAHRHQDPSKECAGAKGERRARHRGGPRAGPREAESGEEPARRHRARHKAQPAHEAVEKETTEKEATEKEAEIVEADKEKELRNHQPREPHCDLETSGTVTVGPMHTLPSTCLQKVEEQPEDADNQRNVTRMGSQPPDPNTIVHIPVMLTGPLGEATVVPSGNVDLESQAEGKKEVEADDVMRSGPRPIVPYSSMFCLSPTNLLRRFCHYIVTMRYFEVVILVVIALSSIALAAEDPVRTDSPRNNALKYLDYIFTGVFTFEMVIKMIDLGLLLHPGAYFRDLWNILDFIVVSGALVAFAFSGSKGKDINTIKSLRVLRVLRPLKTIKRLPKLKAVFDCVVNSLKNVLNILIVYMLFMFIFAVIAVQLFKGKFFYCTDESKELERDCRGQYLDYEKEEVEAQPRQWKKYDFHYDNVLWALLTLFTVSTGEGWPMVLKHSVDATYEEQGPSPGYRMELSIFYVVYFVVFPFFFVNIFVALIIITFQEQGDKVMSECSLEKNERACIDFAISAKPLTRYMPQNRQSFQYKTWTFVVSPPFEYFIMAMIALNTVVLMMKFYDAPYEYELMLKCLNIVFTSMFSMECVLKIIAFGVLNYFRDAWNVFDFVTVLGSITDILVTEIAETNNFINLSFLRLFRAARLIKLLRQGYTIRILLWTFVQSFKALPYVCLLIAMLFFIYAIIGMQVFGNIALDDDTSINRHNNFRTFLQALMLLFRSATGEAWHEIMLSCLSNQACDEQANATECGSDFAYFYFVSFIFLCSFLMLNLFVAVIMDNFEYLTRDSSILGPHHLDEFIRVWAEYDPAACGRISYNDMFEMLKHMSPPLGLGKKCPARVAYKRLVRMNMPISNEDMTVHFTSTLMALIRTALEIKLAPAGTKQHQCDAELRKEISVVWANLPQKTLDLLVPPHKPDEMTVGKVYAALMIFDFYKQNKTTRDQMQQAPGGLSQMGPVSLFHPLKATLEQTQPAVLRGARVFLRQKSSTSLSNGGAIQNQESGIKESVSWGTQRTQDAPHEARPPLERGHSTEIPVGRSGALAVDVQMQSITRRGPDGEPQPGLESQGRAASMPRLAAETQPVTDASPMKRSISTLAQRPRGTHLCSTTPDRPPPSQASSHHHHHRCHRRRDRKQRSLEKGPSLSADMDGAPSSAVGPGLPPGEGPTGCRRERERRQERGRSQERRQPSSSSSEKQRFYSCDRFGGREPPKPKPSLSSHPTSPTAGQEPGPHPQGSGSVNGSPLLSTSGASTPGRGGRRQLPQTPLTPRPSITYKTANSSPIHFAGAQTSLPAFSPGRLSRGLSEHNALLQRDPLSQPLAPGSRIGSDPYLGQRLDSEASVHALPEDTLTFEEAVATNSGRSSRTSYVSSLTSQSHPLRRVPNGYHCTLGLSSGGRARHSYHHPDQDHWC

HEK293 = experiment: Selectivity for T-type and N-type [Ca2+] channels expressed in HEK293 cells at 10 uM; conditions: Homo sapiens
[3] = target: T1, Voltage-dependent T-type calcium channel subunit alpha-1G; experiment: Inhibition of T-type [Ca2+] channel (alpha1G) expressed in HEK293 cells
[4] = target: Voltage-dependent T-type calcium channel subunit alpha-1H (Homo sapiens) (UniProt O95180); experiment: Percent inhibition of T-type [Ca2+] channel (alpha1H) stably expressed in Xenopus oocytes at 100 uM; conditions: Oocyte
Voltage-dependent T-type calcium channel subunit alpha-1H (Homo sapiens), sequence (O95180 whole entry): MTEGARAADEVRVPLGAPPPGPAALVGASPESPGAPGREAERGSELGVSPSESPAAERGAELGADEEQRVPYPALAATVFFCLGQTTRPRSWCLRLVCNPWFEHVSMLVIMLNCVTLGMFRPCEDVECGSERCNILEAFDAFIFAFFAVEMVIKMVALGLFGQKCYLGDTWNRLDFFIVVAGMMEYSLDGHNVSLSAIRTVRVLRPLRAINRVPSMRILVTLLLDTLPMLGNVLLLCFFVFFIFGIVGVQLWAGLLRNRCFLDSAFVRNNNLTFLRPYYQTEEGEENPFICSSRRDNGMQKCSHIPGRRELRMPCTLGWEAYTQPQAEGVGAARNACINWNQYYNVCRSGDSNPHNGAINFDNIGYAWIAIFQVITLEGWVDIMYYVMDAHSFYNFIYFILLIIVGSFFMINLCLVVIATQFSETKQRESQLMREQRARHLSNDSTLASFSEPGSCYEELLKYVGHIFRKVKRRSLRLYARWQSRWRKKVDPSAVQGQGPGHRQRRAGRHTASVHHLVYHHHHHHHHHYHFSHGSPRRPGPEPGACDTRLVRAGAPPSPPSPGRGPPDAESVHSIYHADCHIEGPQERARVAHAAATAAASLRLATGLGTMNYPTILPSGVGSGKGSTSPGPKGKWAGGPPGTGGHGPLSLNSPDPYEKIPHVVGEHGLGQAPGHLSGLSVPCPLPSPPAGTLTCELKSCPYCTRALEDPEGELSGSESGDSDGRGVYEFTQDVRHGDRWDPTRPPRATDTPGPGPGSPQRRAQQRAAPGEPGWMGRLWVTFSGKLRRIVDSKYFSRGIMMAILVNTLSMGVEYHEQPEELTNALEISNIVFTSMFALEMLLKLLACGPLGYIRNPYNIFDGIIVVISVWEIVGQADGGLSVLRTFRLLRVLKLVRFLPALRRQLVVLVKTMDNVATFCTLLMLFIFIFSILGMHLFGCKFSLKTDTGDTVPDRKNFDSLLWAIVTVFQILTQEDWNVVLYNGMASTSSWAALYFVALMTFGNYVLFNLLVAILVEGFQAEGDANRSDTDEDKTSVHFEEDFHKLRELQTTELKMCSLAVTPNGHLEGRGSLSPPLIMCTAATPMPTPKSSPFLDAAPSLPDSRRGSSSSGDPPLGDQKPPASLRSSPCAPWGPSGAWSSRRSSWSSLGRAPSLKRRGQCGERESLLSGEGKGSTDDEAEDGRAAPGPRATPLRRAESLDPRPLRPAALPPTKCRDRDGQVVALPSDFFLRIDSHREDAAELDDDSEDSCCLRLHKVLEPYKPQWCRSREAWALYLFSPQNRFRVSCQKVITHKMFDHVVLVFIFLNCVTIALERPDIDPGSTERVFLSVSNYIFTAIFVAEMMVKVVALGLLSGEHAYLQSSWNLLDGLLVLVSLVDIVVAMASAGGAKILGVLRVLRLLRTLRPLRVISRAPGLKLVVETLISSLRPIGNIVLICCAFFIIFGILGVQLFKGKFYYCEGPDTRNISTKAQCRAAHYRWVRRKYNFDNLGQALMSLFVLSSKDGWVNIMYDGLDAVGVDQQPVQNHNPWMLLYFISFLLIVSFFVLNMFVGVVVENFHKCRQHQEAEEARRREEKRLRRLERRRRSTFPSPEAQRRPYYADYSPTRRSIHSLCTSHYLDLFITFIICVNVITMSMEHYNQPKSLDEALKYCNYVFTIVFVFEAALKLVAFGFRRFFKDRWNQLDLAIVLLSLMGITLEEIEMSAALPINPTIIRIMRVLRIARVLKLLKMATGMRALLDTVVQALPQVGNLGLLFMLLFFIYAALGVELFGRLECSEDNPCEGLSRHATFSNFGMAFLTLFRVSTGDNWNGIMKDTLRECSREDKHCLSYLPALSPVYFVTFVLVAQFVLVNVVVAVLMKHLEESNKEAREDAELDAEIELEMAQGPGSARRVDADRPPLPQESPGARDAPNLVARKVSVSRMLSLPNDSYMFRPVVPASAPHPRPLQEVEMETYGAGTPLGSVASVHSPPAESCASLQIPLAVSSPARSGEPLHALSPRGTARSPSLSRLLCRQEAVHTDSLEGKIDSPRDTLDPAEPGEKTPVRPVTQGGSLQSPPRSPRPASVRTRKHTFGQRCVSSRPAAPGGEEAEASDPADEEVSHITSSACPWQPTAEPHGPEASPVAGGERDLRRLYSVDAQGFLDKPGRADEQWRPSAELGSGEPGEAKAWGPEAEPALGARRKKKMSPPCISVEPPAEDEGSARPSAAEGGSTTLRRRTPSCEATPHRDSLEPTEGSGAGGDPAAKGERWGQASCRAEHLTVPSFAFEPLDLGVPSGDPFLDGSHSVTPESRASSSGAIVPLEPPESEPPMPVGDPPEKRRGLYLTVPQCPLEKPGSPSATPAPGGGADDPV

[5] = target: Voltage-dependent N-type calcium channel subunit alpha-1B (Homo sapiens) (UniProt Q00975); experiment: Percent inhibition of N-type [Ca2+] channel (Alpha-1B) expressed in HEK293 cells at 10 uM; No blocking

SMILES	inhibition [1] [%]	inhibition [2] [%]	IC50 [3] [nM]	inhibition [4] [%]	inhibition [5] [%]	Selectivity (HEK293)
CC(C)(C)OC(=O)NCCCCCN1C(Nc2ccc(-c3ccccc3)cc2)=Nc2ccccc2C1CC(=O)NCc1ccccc1 (configuration not stated)	88.5	30.1	170	91.2		2.9
COC(=O)CC1c2ccccc2N=C(NCCCCCN)N1c1ccc(-c2ccccc2)cc1 (configuration not stated)	82.5			97	< 1	
O=C(CC1c2ccccc2N=C(N2CCCCC2)N1c1ccccc1)NCc1ccc(NS(=O)(=O)c2ccc(F)cc2)cc1 (configuration not stated)			110			
COC(=O)CC1c2ccccc2N=C(Nc2ccc(-c3ccccc3)cc2)N1CCCCCN (configuration not stated)	84.1	7.5	300	94.6		11.2
COC(=O)CC1c2ccccc2N=C(Nc2ccc(-c3ccccc3)cc2)N1CCCCCNC(=O)OC(C)(C)C (configuration not stated)	88.5	94.9	370	96.5		0.9
COC(=O)CC1c2ccccc2N=C(NCCCCCNC(=O)OC(C)(C)C)N1c1ccc(-c2ccccc2)cc1 (configuration not stated)	86.5	98.6	680	92.2		0.9

More lines, main results first:

inhibition [1] [%]	inhibition [2] [%]	IC50 [3] [nM]	inhibition [4] [%]	inhibition [5] [%]	SMILES	Selectivity (HEK293)
88.3	16.6	160	84.2		CC(C)(C)OC(=O)NCCCCCNC1=Nc2ccccc2C(CC(=O)NCc2ccccc2)N1c1ccc(-c2ccccc2)cc1 (configuration not stated)	5.3
91.8	15.2	140	97		NCCCCCN1C(Nc2ccc(-c3ccccc3)cc2)=Nc2ccccc2C1CC(=O)NCc1ccccc1 (configuration not stated)	6
		1160			O=C(CC1c2ccccc2N=C(N2CCCCC2)N1c1ccccc1)NCc1ccccc1 (configuration not stated)	
	67.6				COCC(=O)O[C@]1(CCN(C)CCCc2nc3ccccc3[nH]2)CCc2cc(F)ccc2[C@@H]1C(C)C	
		170			Cc1ccc(S(=O)(=O)Nc2ccc(CNC(=O)CC3c4ccccc4N=C(N4CCCCC4)N3c3ccccc3)cc2)cc1 (configuration not stated)	
83.8	8.3	130	80.1		NCCCCCNC1=Nc2ccccc2C(CC(=O)NCc2ccccc2)N1c1ccc(-c2ccccc2)cc1 (configuration not stated)	10.1
